Results on eleven compounds are retold here after patent publication US11413278B2, “Compounds and methods for promoting stress resistance” (priority 2015, dated 2022).

In data set [1] the test system is WI-38 cells. As to the kind of experiment: Long-term effects on cell viability (5 days, ATP; morphology, PI imaging).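 As to Luminescence signal for ATP measurement, day-2 Average: compounds at 10 µM with ATP read daily over 5 days of treatment.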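 As to Luminescence signal for ATP measurement, day-3 Average: compounds at 10 µM with ATP read daily over 5 days of treatment.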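 As to Luminescence signal for ATP measurement, day-4 Average: compounds at 10 µM with ATP read daily over 5 days of treatment.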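 As to Luminescence signal for ATP measurement, day-5 Average: compounds at 10 µM with ATP read daily over 5 days of treatment.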 The following applies: 10 μM; for Luminescence signal for ATP measurement, day-1 Average / Luminescence signal for ATP measurement, day-2 Average / Luminescence signal for ATP measurement, day-3 Average / Luminescence signal for ATP measurement, day-4 Average / Luminescence signal for ATP measurement, day-5 Average: n = 6; for ATP luminescence by day-5 normalized: DMSO ctrl = 100.0%. The class given is cell-based. As for the experimental part:
In addition, cell death was scored by PI-imaging on day 2 and day 5 of treatment.
Applicants introduced molecules (at 10 uM final concentration) to WI-38 fibroblasts and then assayed cell viability (through ATP measurement) everyday, during a course of 5 days of continuous treatment. […] Applicants also examined the morphology and scored cell death (propidium iodide staining) for cells treated with the above molecules. Of these 14 molecules, some appeared to cause cell toxicity. […] Despite the observed long-term toxicity, these molecules are still interesting as they may act as anti-tumor agents in vivo, should they have more pronounced cytotoxicity on highly proliferative tumor cells. When cells were incubated with these molecules for ˜24 hrs and then subject to hydrogen peroxide for 3 hrs, these molecules are all protective. […] Some of these small molecules may be toxic by themselves under certain conditions, but by inducing protective mechanisms, they may trigger “hormesis” and therefore protect cells from oxidative stress.

The subject of data set [2] is WI-38 cells. The following applies: read-out: Est. ED50; dose response 0.6-20 μM; H2O2-resistance.
For the next data set, the system named is FOXO3. Briefly: qPCR analysis of FOXO3-regulated genes. In kind it is cell-based, human. Particulars: Homo sapiens, 24 h, Assay 10(m), at 10 uM, qPCR. The method, then: (§1) For qPCR analysis, WI-38 cells were treated with small molecules (at 10 μM) (biological quadruplicates) for 24 hrs and processed for RNA isolation and reverse transcription (RT) with the Cells-to-Ct Kit (Life Technologies), following manufacturer's instructions. RT products were diluted with H2O and used for qPCR analysis on an ABI 7300 system (Life Technologies) (technical triplicates). Relative expression levels of target genes were normalized to the genes B2M, PPIA and GAPDH. To knock down the expression of FOXO3 or NRF2, WI-38 cells were transfected, using the RNAiMAX reagents (Life Technologies), with siRNA oligos (at 10 nM final concentration, 10 ml culture medium) for FOXO3 (Life Technologies) or NRF2 (Integrated DNA Technologies) on 10-cm petri dishes for 36 hrs, and then detached and aliquoted onto 96-well (for qPCR analysis) or 384-well plates (for H2O2-stress treatment). ˜24 hrs later, small molecules were introduced and incubated with cells for 24 hrs. Cells were then either processed with the Cells-to-Ct Kit to prepare RT products for qPCR analysis or subjected to H2O2 (700 μM) for 3 hrs and assayed for viability. The knockdown efficiency of FOXO3 or NRF2 was checked at 36 hrs post-transfection and at the end as well.
(§2) For qPCR analysis, WI-38 cells were treated with small molecules (at 10 μM) (biological quadruplicate) for 24 hrs and processed for RNA isolation and reverse transcription (RT) with the Cells-to-Ct Kit (Life Technologies), following manufacturer's instructions. RT products were diluted with H2O and used for qPCR analysis on a LightCycler 480 system (Roche) (technical triplicates). Relative expression levels of target genes were normalized to the genes B2M, PPIA and GAPDH. To knock down the expression of FOXO3 or NRF2, WI-38 cells were transfected with siRNA oligos (at 10 nM final concentration) for FOXO3 (Life Technologies) or NRF2 on 10-cm petri dish for 36 hrs, and then detached and aliquoted onto 96-well plates. ˜24 hrs later, small molecules were introduced and incubated with cells for 24 hrs. Cells were then processed with the Cells-to-Ct Kit to prepare RT products for qPCR analysis. The knockdown efficiency of FOXO3 or NRF2 was checked at 36 hrs post-transfection and at the end as well.
Many perturbations that increase lifespan and stress resistance in animals do so in a FOXO-dependent fashion (Kenyon, 2010c). Humans have several FOXO genes, but FOXO3, which promotes stress resistance in mammalian cell culture (Kops et al., 2002; Nemoto and Finkel, 2002; Tran et al., 2003), is the one that has been linked to exceptional longevity in humans (Anselmi et al., 2009; Flachsbart et al., 2009; Li et al., 2009; Pawlikowska et al., 2009; Soerensen et al., 2010; Willcox et al., 2008). FOXO1, in contrast, appears to be responsible for some symptoms of diabetes in mouse models (Cheng and White, 2011). For this reason, applicants have focused on analyzing potential ability of our small molecules to activate FOXO3. […] Another 4 molecules (Gr-7A, Gr-7C, O12 and O23) could induce robust expression (greater than 1.5-fold) of at least 2 FOXO3 target genes.

The test system of data set [3] is NRF2. As to the kind of experiment: qPCR analysis of NRF2-regulated genes. The class given is cell-based, human. The following applies: Homo sapiens, 24 h, Assay 12(o), at 10 uM, qPCR. As for the experimental part: as §1, §2
NRF2/SKN-1, the oxidative stress and xenobiotic phase 2 detoxification protein, can extend animal lifespan (Sykiotis and Bohmann, 2008; Tullet et al., 2008). Applicants analyzed these small molecules for their ability to increase the expression of NRF2-regulated genes, including HMOX1 (heme oxygenase (decycling) 1; anti-oxidant), NQO1 (NAD(P)H dehydrogenase, quinone 1; phase 2 detoxification enzyme), GCLC (glutamate-cysteine ligase, catalytic) and GSTM1 (glutathionine S transferase) (Hur and Gray, 2011; Suzuki et al., 2013).
For orientation: Real-time PCR tracks product formation cycle by cycle.

In data set [4] the test system is NRF2. Briefly: in vitro. The class given is cell-based, human. Particulars: 10 uM; YES/NO. As for the experimental part: as §1, §2
Of these, O15 and O20 consistently (in 3 of 3 experiments) required NRF2 to promote H2O2-resistance, and their resistance capacities were reduced by ˜90% on average upon NRF2 knockdown under conditions tested.

Another data set concerns C. elegans. Briefly: C. elegans lifespan assays (liquid and plate). Particulars: Caenorhabditis elegans, at 66 uM. In kind it is in vivo, Caenorhabditis elegans.
Data set [5] concerns phosphorylated γH2A.X and TP53BP1. Briefly: DNA damage marker analysis (immuno-staining). The method, then:
WI-38 cells were seeded on 96-well plates and cultured for 24 hrs and then incubated with small molecules for another 24 hrs. As the positive control to damage DNA, H2O2 was supplemented at 700 μM final concentration for the last 3 hrs. Cells were washed with phosphate-buffered saline (PBS), fixed with 4% paraformaldehyde and then blocked with 5% normal goat serum (Cell Signaling), plus 0.3% Triton X-100, for 1 hr. Primary antibody cocktail (rabbit anti-phospho-histone γH2A.X (Ser-139), 1:100; anti-phospho-TP53BP1 (Ser-1778), 1:100), prepared in 1% BSA and 0.3% Triton X-100/PBS, was then introduced and incubated overnight at 4 C. Next day, samples were washed with PBS and further incubated with fluorophore-conjugated secondary antibody (1:1,000) for 1 hr in the dark. Samples were then washed and incubated with DAPI dye (Life Technologies) (4 μg/ml final concentration) for the last 10 minutes. Images were collected on an INCell Analyzer 2000 (GE) and analyzed with the Developer software.
WI-38 cells were seeded (˜8,000 cells per well) on 96-well plates and cultured for 24 hrs and then incubated with small molecules for another 24 hrs. Doxorubicin (300 nM, 24 hrs) and H2O2 (700 μM, 3 hrs) were also introduced as the positive controls to damage DNA. Cells were washed with phosphate-buffered saline (PBS), fixed with 4% paraformaldehyde for 30 min and then blocked with 5% normal goat serum (Cell Signaling) and 0.3% Triton X-100 for 1 hr. Primary antibody cocktail (Cell Signaling, rabbit anti-phospho-histone γH2A.X (Ser-139), 1:100; anti-phospho-TP53BP1 (Ser-1778), 1:100) was prepared in PBS with 1% BSA and 0.3% Triton X-100 and incubated overnight at 4° C. Next day, samples were washed with PBS and further incubated with fluorophore-conjugated secondary antibody (1:1,000) for 1 hr in dark. Samples were then washed and incubated with DAPI dye (Life Technologies) (4 μg/ml final concentration) for 30 minutes. Images were collected on the INCell Analyzer 2000 (10× objective) and analyzed with the Developer Toolbox.

The subject of data set [6] is human dermal fibroblast (HDF) primary cells. Briefly: H2O2-resistance in primary human dermal fibroblasts. Particulars: YES/NO. In kind it is cell-based.
The mark [7] stands for this setting: Batch 1, day-0 luminescence = 320956 ± 24708.
Setting [8] is: Batch 2, day-0 luminescence = 229312 ± 17487.
Where [9] appears, read: read-out: Induction of FOXO3-regulated genes: GADD45A normalized fold-change.
[10] abbreviates: read-out: Induction of NRF2-regulated genes: NQO1 normalized fold-change.

The structures appear in SMILES notation. Read-outs that look alike come from different tables or passages of the source.

Turning to `CO[C@H]1C[C@@H]2CC[C@@H](C)[C@@](O)(O2)C(=O)C(=O)N2CCCC[C@H]2C(=O)O[C@H]([C@H](C)C[C@@H]2CC[C@@H](O)[C@H](OC)C2)CC(=O)[C@H](C)/C=C(\C)[C@@H](O)[C@@H](OC)C(=O)[C@H](C)C[C@H](C)/C=C/C=C/C=C/1C` [Rapa], in the data set on WI-38 cells [1] (setting [7]), the “Luminescence signal for ATP measurement, day-1 Average” value is 454546; the “Luminescence signal for ATP measurement, day-2 Average” value turned out to be 519403; the “Luminescence signal for ATP measurement, day-3 Average” value was 545026; the “Luminescence signal for ATP measurement, day-4 Average” value is recorded as 552160. For the same compound, the “Luminescence signal for ATP measurement, day-5 Average” value in the data set with WI-38 cells [1] (setting [7]) is 547771. Also, the “ATP luminescence by day-5 normalized” value in the data set on WI-38 cells [1] (Batch 1) is on record as 53.3%. Moreover, in the data set on WI-38 cells [1] (setting [8]), the “Luminescence signal for ATP measurement, day-1 Average” value amounted to 239521; the “Luminescence signal for ATP measurement, day-2 Average” value was found to be 221640; the “Luminescence signal for ATP measurement, day-3 Average” value turned out to be 244073; the “Luminescence signal for ATP measurement, day-4 Average” value was 276911. The “Luminescence signal for ATP measurement, day-5 Average” value with WI-38 cells [1] (setting [8]) is 262898. The “ATP luminescence by day-5 normalized” value in the data set with WI-38 cells [1] (Batch 2) is 47.3%.
For the compound `CC(C)CCOc1ccc(C(=O)C(CN2CCOCC2)c2ccccc2)cc1` (stereo not shown) [O30], in the data set with WI-38 cells [2], the EC50 is 4.2 µM.
On to `Oc1cc(-c2ccccc2)nc2c(-c3ccc(Cl)cc3)c(Cc3ccccc3)nn12` [O26], for which the fold induction at 10 µM with FOXO3 (setting [9]) came to 3.36; in the data set on FOXO3 (read-out: Induction of FOXO3-regulated genes: SESN1 normalized fold-change) it was 2.21; in the data set on FOXO3 (read-out: Induction of FOXO3-regulated genes: TXNIP normalized fold-change), 1.16; in the data set on NRF2 [3] (read-out: Induction of NRF2-regulated genes: GSTM1 normalized fold-change) it was 0.85; in the data set with NRF2 [3] (setting [10]) it was 0.44. In addition, the “Assay 17: NRF2-dependency for H2O2-resistance” value with NRF2 [4] was “YES”. Also, the EC50 in the data set on WI-38 cells [2] is 20 µM. The ILS at 66 µM in the data set with C. elegans (Assay 2(z), 1.0 × 10^9 bacteria/ml, wild type + FuDR (2012 July), read-out: Lifespan assay in liquid) worked out at 23.9%; with C. elegans (Assay 3(aa), 2.5 × 10^9 bacteria/ml, wild type + FuDR, read-out: Lifespan assay in liquid), 4.6%; in the data set with C. elegans (Assay 4(ab), 2.0 × 10^10 bacteria/ml, CF512 worms, no FuDR, read-out: Lifespan assay on plates), 27.1%; with C. elegans (Assay 5(ac), 1.0 × 10^11 bacteria/ml, CF512 worms, no FuDR, read-out: Lifespan assay on plates), 8.3%.
In the case of `Cc1cc(C)n(-c2nc(O)cc(-c3ccccc3)n2)n1` [O28], the EC50 with WI-38 cells [2] stood at 5.4 µM.
On to `Nc1c(Cl)ncnc1NCCCn1ccnc1` [O31], for which the EC50 in the data set on WI-38 cells [2] came to 10.6 µM.
As for `OO` [H2O2, hydrogen peroxide, reference compound], in data set [5], the TP53BP1-positive cells is listed as roughly 45.8±5.1% and the γH2A.X-positive cells is roughly 50.9±4.2%.
Consider `O=C(CC1(O)C(=O)Nc2ccc(Br)cc21)c1ccc(Cl)cc1` (stereo not shown) [O19], for which, in data set [6], the “Assay 6: H2O2-resistant, at 10 uM, human dermal fibroblast (HDF) primary cells” value is reported as “YES”. The fold induction at 10 µM with FOXO3 (setting [9]) worked out at 0.84; in the data set with NRF2 [3] (setting [10]), 1.91. The EC50 in the data set on WI-38 cells [2] turned out to be 20 µM.
In the case of `COCCCN1Cc2cccc(C(N)=O)c2C1=O` [O2], the EC50 in the data set with WI-38 cells [2] was 20 µM.
On the same count and under the same terms, the same measure for `Cc1ccc(C(=O)Nc2ccc3ccc4cccnc4c3n2)cc1` [Gr-3D]: 4.96 µM.
For `O=C(O)c1cc(Cl)c(Cl)cc1C(=O)Nc1ccccc1` [O25], the “Assay 6: H2O2-resistant, at 10 uM, human dermal fibroblast (HDF) primary cells” value in data set [6] was “YES”. Further, the EC50 in the data set on WI-38 cells [2] was 8.5 µM.
Regarding `CCCCCCc1cc(C=O)c(O)cc1O` [O29], the EC50 in the data set on WI-38 cells [2] turned out to be 15.3 µM.
